Test results published in patent publication US20240043420A1, “7-AZAINDOLE COMPOUNDS FOR INHIBITION OF BCR-ABL TYROSINE KINASES” (EnLiven Therapeutics, Inc., priority 2020, published 2024).

Legend:
pCRKL in K562 cells = assay: pCRKL ELISA assay in K562 cells; type: cell-based; settings: Homo sapiens, 1.5 h, 90 minutes incubation, read-out: PCRKL ELISA, Cell Line IC50 (nM) K562
Method: K562 or Ba/F3 ABL T315I cells (2.0*10^5 cells/100 μl/well) were seeded in 96 well (Corning, cat #3799). Compounds were dissolved in DMSO, serially diluted in DMSO and then were added, mixed, and incubated for 90 minutes at 37° C., 5% CO2. Following the 90-minute incubation, plates were centrifuged for 5 min at 3000 RPM and supernatant was removed from each well. Cells were washed 3 times with 150 μl PBS prior to addition of 100 μl cell RIPA lysis buffer (Boston BioProducts, cat #BP-115D) supplied with 1×complete ULTRA cocktail inhibitor (Roche, 05892791001) and 1×PhosSTOP Phosphatase Inhibitor Cocktail Tablets (Roche, 04906837001). Cells were incubated with lysis buffer for 1 hour at 4° C. prior to storage at −80 C.
A capture antibody able to detect phosphorylated and non-phosphorylated CRKL (R&D Systems, cat #AF5127) was added to Meso Scale Discovery (MSD) standard bind plates (MSD, cat #L15XA-3) at 5 ug/mL and incubated at 4° C. overnight. The next day, plates were washed with PBS+0.05% Tween20 (PBST) and 150 μl of 5% BSA blocking solution was added for 1 hour at room temperature with shaking. Plates were washed with PBST. Lysates were thawed and 30 μl of lysate was added to the MSD plates and incubated for 2 hours at room temperature with shaking. MSD plates were washed with PBST and 30 μl of a detection antibody that binds phosphorylated pCRKL (R&D Systems, cat #MAB6910) was added at 1 μg/mL to each well. Plates were incubated for 1 hour at room temperature with shaking. Plates were washed with PBST prior to addition of 30 μl of a sulfo tagged goat anti mouse detection antibody (MSD cat #R32AC-1). Plates were incubated for 1 hour at room temperature with shaking. Plates were washed with PBST prior to addition of 150 ul of 1×MSD read buffer T (MSD, cat 4R92TC-2). Electrochemiluminescence (ECLU) was read on an MSD plate reader (Meso Scale Discovery). The remaining activity by calculated as follows: 00 Relative activity=100×(ELCUsample−ECLULC)/(ECLUHC−ECLULC). The low and high controls (LC/HC) are generated from lysate from wells without cells or with cells treated with 0.1% DMSO, respectively. IC50 values were calculated using XLFit software using a nonlinear regression model with a sigmoidal dose response and are shown in Table 4 and Table 5 below.

HL60 cells = assay: HL60 cell proliferation assay (CellTiter-Glo); type: cell-based; settings: Homo sapiens, HL-60, 72 h, CellTiter-Glo viability, read-out: Cell Line (IC50, nM) HL60
In short: (§1)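 Cells in IMDM/10% FBS seeded at 2,000 (K562) or 1,500 (HL60) per well, exposed to serially diluted compounds for 72 h at 37 °C, 5% CO2. Viability by CellTiter-Glo luminescence, normalized between DMSO (high) and cell-free media (low) controls.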

ABL1 = target: T1, ABL1 (Homo sapiens, UniProt P00519); assay: Luminescence-based ABL kinase assay (ADP-Glo, 300 μM ATP); type: biochemical
T1 construct: purchased Carna Biosciences
In short: (§2)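 ABL1 (3.325 nM in the enzyme solution) was preincubated with compound for 30 min at RT in HEPES pH 7.5 buffer with MgCl2, EGTA, DTT, BSA and Brij-35. Adding Peptide 2 and ATP (6 μM and 1.2 mM in the start solution) began a 90 min RT reaction. ADP-Glo luminescence gave % activity and IC50.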

ABL1 (T315I) = ABL1 (T315I) (Homo sapiens, UniProt P00519, T315I); assay: Luminescence-based ABL kinase assay (ADP-Glo, 300 μM ATP), T315I mutant; type: biochemical
In short: as §2

K562 cells = assay: K562 cell proliferation assay (CellTiter-Glo); type: cell-based; settings: Homo sapiens, K562, 72 h, CellTiter-Glo viability, read-out: Cell Line (IC50, nM) K562
In short: as §1

Compound	IC50 (pCRKL in K562 cells) [nM]	IC50 (HL60 cells) [nM]	IC50 (ABL1) [nM]	IC50 (ABL1 (T315I)) [nM]	IC50 (K562 cells) [nM]
COc1c(-c2c[nH]c3nc(NC(=O)C4CC4)ccc23)ccc2[nH]cnc12 [Compound 15, N-[3-(4-methoxy-1H-1,3-benzodiazol-5-yl)-1H-pyrrolo[2,3-b]pyridin-6-yl]cyclopropanecarboxamide]	468	1710	12.1	2.78	181
COc1ccccc1-c1c[nH]c2nc(NC(=O)NCCN3CCN(C)CC3)ccc12 [Compound 42, 3-[3-(2-methoxyphenyl)-1H-pyrrolo[2,3-b]pyridin-6-yl]-1-[2-(4-methylpiperazin-1-yl)ethyl]urea]	88.3	> 10000	45.4	12.7	254
COc1ccccc1-c1n[nH]c2nc(NC(=O)C3CC3)ccc12 [Compound 44, N-[3-(2-methoxyphenyl)-1H-pyrazolo[3,4-b]pyridin-6-yl]cyclopropanecarboxamide]	275	> 10000	23.1	39.8	151
COc1cc2[nH]ncc2cc1-c1c[nH]c2nc(NC(=O)[C@@H]3C[C@@H]3F)ccc12 [Compound 50, (1S,2S)-2-fluoro-N-[3-(6-methoxy-1H-indazol-5-yl)-1H-pyrrolo[2,3-b]pyridin-6-yl]cyclopropane-1-carboxamide]	151	> 10000	3.9	2.51	120
COc1cc2[nH]ncc2cc1-c1c[nH]c2nc(NC(=O)[C@H]3C[C@H]3F)ccc12 [Compound 53, (1R,2R)-2-fluoro-N-[3-(6-methoxy-1H-indazol-5-yl)-1H-pyrrolo[2,3-b]pyridin-6-yl]cyclopropane-1-carboxamide]	584	3110	6.92	5.63	267
O=C(Nc1ccc2c(-c3ccc4nccn4c3)c[nH]c2n1)C1CC1 [Compound 56, N-(3-(imidazo[1,2-a]pyridin-6-yl)-1H-pyrrolo[2,3-b]pyridin-6-yl)cyclopropanecarboxamide]	745	120	30.3	53.5	183
COc1nc2nc[nH]c2cc1-c1c[nH]c2nc(NC(=O)C3CC3)ccc12 [Compound 61, N-(3-[5-methoxy-1H-imidazo[4,5-b]pyridin-6-yl]-1H-pyrrolo[2,3-b]pyridin-6-yl)cyclopropanecarboxamide]	88.4	> 10000	3.28	5.08	36.9
COc1cccc(F)c1-c1n[nH]c2nc(NC(=O)[C@@H]3C[C@@H]3F)ccc12 [Compound 66, (1S,2S)-2-fluoro-N-[3-(2-fluoro-6-methoxyphenyl)-1H-pyrazolo[3,4-b]pyridin-6-yl]cyclopropane-1-carboxamide]	702	> 10000	91.5	38.7	603
COc1ncc(F)cc1-c1n[nH]c2nc(NC(=O)[C@@H]3C[C@@H]3F)ccc12 [Compound 74, (1S,2S)-2-fluoro-N-[3-(5-fluoro-2-methoxypyridin-3-yl)-1H-pyrazolo[3,4-b]pyridin-6-yl]cyclopropane-1-carboxamide]	572	> 10000	55.6	63	351
COc1cc2[nH]ncc2cc1-c1n[nH]c2nc(NC(=O)[C@@H]3C[C@@H]3F)ccc12 [Compound 82, (1S,2S)-2-fluoro-N-[3-(6-methoxy-1H-indazol-5-yl)-1H-pyrazolo[3,4-b]pyridin-6-yl]cyclopropane-1-carboxamide]	1050	> 10000	13.5	20.5	437

More lines, now with the values ahead:

IC50 (pCRKL in K562 cells) [nM]	IC50 (HL60 cells) [nM]	IC50 (ABL1) [nM]	IC50 (ABL1 (T315I)) [nM]	IC50 (K562 cells) [nM]	Compound
174	> 10000	8.17	0.896	80.3	COc1ccccc1-c1c[nH]c2nc(NC(=O)[C@@H]3C[C@@H]3F)ccc12 [Compound 3, (1S,2S)-2-fluoro-N-(3-(2-methoxyphenyl)-1H-pyrrolo[2,3-b]pyridin-6-yl)cyclopropane-1-carboxamide]
680	> 10000	62.9	68.4	220	COc1ncccc1-c1c[nH]c2nc(NC(=O)[C@H]3C[C@H]3F)ccc12 [Compound 26, (1R,2R)-2-fluoro-N-(3-(2-methoxypyridin-3-yl)-1H-pyrrolo[2,3-b]pyridin-6-yl)cyclopropane-1-carboxamide]
685	> 10000	7.47	0.705	292	CCOc1ncccc1-c1c[nH]c2nc(NC(=O)C3CC3)ccc12 [Compound 47, N-[3-(2-ethoxypyridin-3-yl)-1H-pyrrolo[2,3-b]pyridin-6-yl]cyclopropanecarboxamide]
585	> 10000	4.33	3.04	295	COc1cc2[nH]cnc2cc1-c1c[nH]c2nc(NC(=O)[C@@H]3C[C@@H]3F)ccc12 [Compound 49, (1S,2S)-2-fluoro-N-[3-(6-methoxy-1H-1,3-benzodiazol-5-yl)-1H-pyrrolo[2,3-b]pyridin-6-yl]cyclopropane-1-carboxamide]
1350	> 10000	15.4	4.41	668	COc1c(-c2c[nH]c3nc(NC(=O)[C@H]4C[C@H]4F)ccc23)ccc2[nH]cnc12 [Compound 51, (1R,2R)-2-fluoro-N-[3-(4-methoxy-1H-1,3-benzodiazol-5-yl)-1H-pyrrolo[2,3-b]pyridin-6-yl]cyclopropane-1-carboxamide]
3120	> 10000	8.95	13.7	829	COc1cc2[nH]cnc2cc1-c1c[nH]c2nc(NC(=O)[C@H]3C[C@H]3F)ccc12 [Compound 52, (1R,2R)-2-fluoro-N-[3-(6-methoxy-1H-1,3-benzodiazol-5-yl)-1H-pyrrolo[2,3-b]pyridin-6-yl]cyclopropane-1-carboxamide]
281	> 10000	2.92	3.4	132	COc1cc2cn[nH]c2cc1-c1c[nH]c2nc(NC(=O)[C@@H]3C[C@@H]3F)ccc12 [Compound 58, (1S,2S)-2-fluoro-N-[3-(5-methoxy-1H-indazol-6-yl)-1H-pyrrolo[2,3-b]pyridin-6-yl]cyclopropane-1-carboxamide]
171	> 10000	20.8	43	137	CCOc1ncccc1-c1c[nH]c2nc(NC(=O)[C@@H]3C[C@@H]3F)ccc12 [Compound 62, (1S,2S)—N-(3-(2-ethoxypyridin-3-yl)-1H-pyrrolo[2,3-b]pyridin-6-yl)-2-fluorocyclopropane-1-carboxamide]
328	> 10000	40.7	64.5	255	CCOc1ncccc1-c1c[nH]c2nc(NC(=O)[C@H]3C[C@H]3F)ccc12 [Compound 63, (1R,2R)—N-(3-(2-ethoxypyridin-3-yl)-1H-pyrrolo[2,3-b]pyridin-6-yl)-2-fluorocyclopropane-1-carboxamide]
1120	> 10000	106	137	727	COc1ncccc1-c1n[nH]c2nc(NC(=O)[C@@H]3C[C@@H]3F)ccc12 [Compound 77, (1S,2S)-2-fluoro-N-[3-(2-methoxypyridin-3-yl)-1H-pyrazolo[3,4-b]pyridin-6-yl]cyclopropane-1-carboxamide]
